# Laboratory results taken from the NIST ThermoML archive (doi:10.1016/j.jct.2013.01.005).
# Numbers after ± are expanded uncertainties.
# What was measured:
# [1] = 101.33 kPa, Liquid, Vibrating tube method
# [2] = activity coefficient (dimensionless); of the first substance listed, at infinite dilution; xn = mol fraction of the nth substance listed; conditions: 101 kPa, Liquid, Chromatography, x1 = 0
Structure (SMILES),activity coefficient ([2]; 318.15 K),activity coefficient ([2]; 328.15 K),activity coefficient ([2]; 338.15 K),activity coefficient ([2]; 348.15 K),activity coefficient ([2]; 358.15 K),activity coefficient ([2]; 308.15 K),also measured
CCCCC[N+]1(C)CCCCC1.O=S(=O)([N-]S(=O)(=O)C(F)(F)F)C(F)(F)F,,,,,,,mass density ([1]; 293.15 K): 1354.47 ± 0.26 kg/m3; mass density ([1]; 298.15 K): 1350.13 ± 0.26 kg/m3; mass density ([1]; 303.15 K): 1345.85 ± 0.26 kg/m3; mass density ([1]; 308.15 K): 1341.7 ± 0.26 kg/m3; mass density ([1]; 313.15 K): 1337.54 ± 0.26 kg/m3; mass density ([1]; 318.15 K): 1333.36 ± 0.25 kg/m3; mass density ([1]; 323.15 K): 1329.2 ± 0.25 kg/m3; mass density ([1]; 328.15 K): 1325.05 ± 0.25 kg/m3; mass density ([1]; 333.15 K): 1320.89 ± 0.25 kg/m3; mass density ([1]; 338.15 K): 1316.75 ± 0.25 kg/m3; mass density ([1]; 343.15 K): 1312.6 ± 0.24 kg/m3; mass density ([1]; 348.15 K): 1308.46 ± 0.24 kg/m3; mass density ([1]; 353.15 K): 1304.36 ± 0.24 kg/m3; mass density ([1]; 358.15 K): 1300.26 ± 0.24 kg/m3
CCCCCC[N+]1(C)CCCCC1.O=S(=O)([N-]S(=O)(=O)C(F)(F)F)C(F)(F)F,,,,,,,mass density ([1]; 293.15 K): 1329.53 ± 0.18 kg/m3; mass density ([1]; 298.15 K): 1325.41 ± 0.18 kg/m3; mass density ([1]; 303.15 K): 1321.3 ± 0.18 kg/m3; mass density ([1]; 308.15 K): 1317.2 ± 0.18 kg/m3; mass density ([1]; 313.15 K): 1313.11 ± 0.18 kg/m3; mass density ([1]; 318.15 K): 1309.04 ± 0.18 kg/m3; mass density ([1]; 323.15 K): 1304.98 ± 0.18 kg/m3; mass density ([1]; 328.15 K): 1300.93 ± 0.18 kg/m3; mass density ([1]; 333.15 K): 1296.9 ± 0.17 kg/m3; mass density ([1]; 338.15 K): 1292.88 ± 0.17 kg/m3; mass density ([1]; 343.15 K): 1288.87 ± 0.17 kg/m3; mass density ([1]; 348.15 K): 1284.87 ± 0.17 kg/m3; mass density ([1]; 353.15 K): 1280.88 ± 0.17 kg/m3; mass density ([1]; 358.15 K): 1276.91 ± 0.17 kg/m3
CCCCC(C)=O [2-hexanone] + CCCCC[N+]1(C)CCCCC1.O=S(=O)([N-]S(=O)(=O)C(F)(F)F)C(F)(F)F,0.761 ± 0.05,0.779 ± 0.051,0.792 ± 0.052,0.822 ± 0.053,0.84 ± 0.054,,
"Cc1ccccc1C [1,2-dimethylbenzene] + CCCCC[N+]1(C)CCCCC1.O=S(=O)([N-]S(=O)(=O)C(F)(F)F)C(F)(F)F",1.14 ± 0.07,1.16 ± 0.07,1.19 ± 0.08,1.24 ± 0.08,1.27 ± 0.08,1.06 ± 0.07,
"Cc1cccc(C)c1 [1,3-dimethylbenzene] + CCCCC[N+]1(C)CCCCC1.O=S(=O)([N-]S(=O)(=O)C(F)(F)F)C(F)(F)F",1.24 ± 0.08,1.28 ± 0.08,1.31 ± 0.09,1.36 ± 0.09,1.39 ± 0.09,1.15 ± 0.07,
COC(C)(C)C [2-methoxy-2-methylpropane] + CCCCCC[N+]1(C)CCCCC1.O=S(=O)([N-]S(=O)(=O)C(F)(F)F)C(F)(F)F,1.63 ± 0.11,1.66 ± 0.11,1.7 ± 0.11,1.72 ± 0.12,1.76 ± 0.12,1.59 ± 0.11,
CCc1ccccc1 [ethylbenzene] + CCCCC[N+]1(C)CCCCC1.O=S(=O)([N-]S(=O)(=O)C(F)(F)F)C(F)(F)F,1.31 ± 0.09,1.35 ± 0.09,1.37 ± 0.09,1.42 ± 0.09,1.43 ± 0.09,1.26 ± 0.08,
CCCOCCC [dipropyl ether] + CCCCCC[N+]1(C)CCCCC1.O=S(=O)([N-]S(=O)(=O)C(F)(F)F)C(F)(F)F,3.47 ± 0.24,3.44 ± 0.23,3.41 ± 0.23,3.38 ± 0.23,3.37 ± 0.23,3.5 ± 0.24,
CO [methanol] + CCCCCC[N+]1(C)CCCCC1.O=S(=O)([N-]S(=O)(=O)C(F)(F)F)C(F)(F)F,1.37 ± 0.09,1.26 ± 0.08,1.16 ± 0.07,1.08 ± 0.07,0.995 ± 0.062,1.51 ± 0.1,
CCCCCCCC [octane] + CCCCC[N+]1(C)CCCCC1.O=S(=O)([N-]S(=O)(=O)C(F)(F)F)C(F)(F)F,16.9 ± 1.2,15.9 ± 1.1,15.1 ± 1,14.4 ± 1,13.7 ± 0.9,18.2 ± 1.2,
CCCCC(C)=O [2-hexanone] + CCCCCC[N+]1(C)CCCCC1.O=S(=O)([N-]S(=O)(=O)C(F)(F)F)C(F)(F)F,0.706 ± 0.047,0.722 ± 0.048,0.74 ± 0.049,0.764 ± 0.05,0.784 ± 0.051,0.694 ± 0.047,
C#CCCCCC [1-heptyne] + CCCCCC[N+]1(C)CCCCC1.O=S(=O)([N-]S(=O)(=O)C(F)(F)F)C(F)(F)F,2.43 ± 0.17,2.46 ± 0.17,2.49 ± 0.17,2.52 ± 0.17,2.55 ± 0.17,2.39 ± 0.16,
CCCC(C)=O [pentan-2-one] + CCCCC[N+]1(C)CCCCC1.O=S(=O)([N-]S(=O)(=O)C(F)(F)F)C(F)(F)F,0.611 ± 0.043,0.629 ± 0.043,0.643 ± 0.044,0.666 ± 0.045,0.682 ± 0.046,,
C#CCCCCCC [1-octyne] + CCCCC[N+]1(C)CCCCC1.O=S(=O)([N-]S(=O)(=O)C(F)(F)F)C(F)(F)F,3.74 ± 0.25,3.76 ± 0.26,3.79 ± 0.26,3.81 ± 0.26,3.84 ± 0.26,3.71 ± 0.25,
C1=CCCCC1 [cyclohexene] + CCCCC[N+]1(C)CCCCC1.O=S(=O)([N-]S(=O)(=O)C(F)(F)F)C(F)(F)F,3.63 ± 0.25,3.53 ± 0.24,3.39 ± 0.23,3.3 ± 0.22,3.21 ± 0.22,3.73 ± 0.25,
c1ccccc1 [benzene] + CCCCC[N+]1(C)CCCCC1.O=S(=O)([N-]S(=O)(=O)C(F)(F)F)C(F)(F)F,0.703 ± 0.047,0.712 ± 0.047,0.721 ± 0.048,0.744 ± 0.049,0.753 ± 0.05,0.696 ± 0.047,
CCCCCCC [heptane] + CCCCC[N+]1(C)CCCCC1.O=S(=O)([N-]S(=O)(=O)C(F)(F)F)C(F)(F)F,12.4 ± 0.8,11.8 ± 0.8,11.3 ± 0.8,10.8 ± 0.7,10.4 ± 0.7,13.6 ± 0.9,
CCCCC [pentane] + CCCCCC[N+]1(C)CCCCC1.O=S(=O)([N-]S(=O)(=O)C(F)(F)F)C(F)(F)F,5.73 ± 0.39,5.42 ± 0.37,5.3 ± 0.36,5.2 ± 0.35,4.95 ± 0.34,5.95 ± 0.41,
C1CCCC1 [cyclopentane] + CCCCC[N+]1(C)CCCCC1.O=S(=O)([N-]S(=O)(=O)C(F)(F)F)C(F)(F)F,4.5 ± 0.31,4.24 ± 0.29,3.98 ± 0.27,3.82 ± 0.26,3.72 ± 0.25,4.72 ± 0.32,
CCCCCCCCCC [decane] + CCCCC[N+]1(C)CCCCC1.O=S(=O)([N-]S(=O)(=O)C(F)(F)F)C(F)(F)F,29.5 ± 2,27.9 ± 1.9,26.2 ± 1.8,25.1 ± 1.7,23.8 ± 1.6,31.9 ± 2.2,
CCCCCO [pentan-1-ol] + CCCCCC[N+]1(C)CCCCC1.O=S(=O)([N-]S(=O)(=O)C(F)(F)F)C(F)(F)F,2.23 ± 0.15,2.05 ± 0.14,1.92 ± 0.13,1.8 ± 0.12,1.71 ± 0.11,2.44 ± 0.17,
